Results taken from patent US20140079741A1, “INHIBITION AND TREATMENT OF BIOFILMS” (priority 2011, published 2014).

Assays:
[1] = test system: C. albicans biofilms of wild type CAF2; assay: Biofilm activity assay, crystal violet quantification (BEC50); format: cell-based, Candida albicans; conditions: 500 μg/ml diclofenac in the absence of miconazole
Procedure: Biofilm activity assay. The activity of miconazole and fluconazole against 16 h-old C. albicans biofilms (10^7 cells/well) was assessed using the crystal violet quantification method. The biofilm-eradicating capacity of a compound was determined as the minimal concentration resulting in 50% eradication of the biofilm (BEC50).
Miconazole sensitivity was analyzed of biofilms of C. albicans homozygous null mutants affected in genes involved in the cyclic AMP signaling pathway, namely Δcdc35, Δras1, Δpde1, Δpde2 and Δefg1. To this end, the inventors incubated 16 h-old C. albicans biofilms with various concentrations of miconazole for 24 h and determined the remaining biomass using the crystal violet quantification method.
To this end, cultures of the WT CAF2-1 were grown overnight (2×10^8 cells/ml) in YPD (1% yeast extract, 2% peptone, 2% glucose) and washed 3 times in PBS (pH 7.4). After dilution (OD600=0.5) in SC (1% CSM, complete amino acid supplement mixture, 1% YNB, yeast nitrogen base; 2% glucose), the cultures were resuspended (100 μl/well) in a 96well microtiter plate. After 1 h of adhesion, the adherent WT cells were incubated with or without 500 μg/ml diclofenac and allowed biofilm formation for 16 h. Next, the resulting biofilms were washed with PBS and treated with various concentrations of miconazole for 24 h in the absence or presence of diclofenac. After washing, the remaining biomass was determined using the crystal violet quantification method.
The biofilm-eradicating capacity of a compound was determined as the minimal concentration resulting in 50% eradication of the biofilm (BEC50).

[2] = test system: C. albicans biofilm cells; assay: Membrane permeability by propidium iodide fluorescence; format: cell-based, Candida albicans; conditions: 2 mM diclofenac during adhesion and growth phase, 24 h, RPMI 1640
Procedure: This was further investigated by evaluating the membrane-disruptive activity of diclofenac on in vitro grown C. albicans biofilm cells by measuring the fluorescence enhancement of propidium iodide (PI). To this end, C. albicans biofilms were grown in RPMI 1640 (pH 7.0) in the presence or absence of diclofenac (ranging from 0.25-4 mM) for 24 h. Next, the biofilm cells were incubated with 3% PI for 20 minutes at room temperature in the dark. Membrane permeability was quantified by measurement of PI fluorescence (excitation at 535 nm, emission at 617 nm).

[3] = test system: C. albicans WT biofilms; assay: Biofilm survival by CFU determination (plating on YPD); format: cell-based, Candida albicans; conditions: 500 μg/ml diclofenac alone
Procedure: Using the same setup as in Example 2, WT biofilms grown in the presence or absence of diclofenac (500 μg/ml) or Δefg1 biofilms were incubated with various concentrations of Amphotericin B (AmB) (2.5-10 μg/ml) for 24 h, both in the presence or absence of diclofenac. After washing, the remaining living cells within the biofilm were determined by plating on YPD and determination of colony forming units (CFUs).

[4] = test system: planktonic cultures of C. albicans CAF2-1; assay: MIC50 against planktonic cultures (NCCLS M27-A3); format: cell-based, Candida albicans; conditions: diclofenac up to 2 mM
Procedure: (§1) Similar results were obtained by determination of the MIC50 values. The susceptibility testing and determination of minimal inhibitory concentrations (MIC) of diclofenac and caspofungin, and combinations thereof that inhibit fungal growth by 50% (MIC50) were performed according the NCCLS M27-A3 protocol (2008).

[5] = test system: biofilms of C. albicans CAF2-1; assay: MIC50 against biofilms (XTT reduction assay); format: cell-based, Candida albicans; conditions: Candida albicans, biofilms, diclofenac alone
Procedure: Using the same setup as above, WT biofilms grown in the presence or absence of diclofenac (0.5-3 mM or 148-888 μg/mL) were incubated with various concentrations of Caspofungin (0-150 μM) for 24 h, both in the presence or absence of diclofenac. After washing, the remaining living cells within the biofilm was determined by CellTiter-Blue quantification. The MIC50 of caspofungin, diclofenac and the combination of both drugs against pretreated or mature C. albicans biofilms was quantified by XTT reduction assay (Ramage et al.).
as §1

[6] = test system: C. albicans cells; assay: Morphology of planktonic and biofilm cells (fluorescence microscopy); format: cell-based, Candida albicans; conditions: pretreated with diclofenac alone, 0.5-3 mM
Procedure: However, the morphology of biofilm cells pretreated with diclofenac alone (ranging from 0.5-3 mM), was not altered.

[7] = test system: C. albicans biofilms grown on catheters; assay: In vitro biofilm drug susceptibility on polyurethane catheter pieces (CFU); format: cell-based, Candida albicans; conditions: 2 mM diclofenac pretreatment alone
Procedure: In an alternative setup, in vitro biofilm drug susceptibility assays were performed using serum-coated 1 cm polyurethane catheter pieces (Arrow International Reading) as described previously. Biofilms were grown in RPMI 1640 (pH 7.0) and Candida cells were allowed to adhere to the substrate for 90 min.
Diclofenac (2 mM) was administered during the period of adhesion of C. albicans cells on the catheters and throughout the period of biofilm formation. Catheter fragments containing diclofenac-pretreated or untreated mature biofilms were washed and subsequently incubated with caspofungin (125 μM) or water in the presence or absence of diclofenac (2 mM) for 24 h, respectively. Biofilms were washed and quantified by determination of colony forming units. Untreated biofilms were considered as controls. Statistical analysis was performed using unpaired t-test; differences were considered significant if p<0.05. Data are the mean and SEM of five independent experiments using at least two catheters per test group.
Similar results were obtained when assessing the antibiofilm effect of caspofungin against mature biofilms, which were formed on diclofenac-soaked catheter fragments versus those formed on unsoaked catheter fragments.

[8] = test system: C. albicans CAF2 biofilms on implanted catheter fragments; assay: Rat subcutaneous catheter infection model (in vivo biofilm susceptibility); design: species or system Candida albicans; conditions: rats
Procedure: A rat subcutaneous catheter infection model was used for in vivo biofilm susceptibility studies, in which 6 rats were treated with sterile saline (control, 40 catheters), 6 rats with diclofenac (48 catheters), 5 rats with caspofungin (40 catheters) and 6 rats with a combination of diclofenac and caspofungin (45 catheters).
Diclofenac and caspofungin solutions for intravenous injection were prepared in sterile physiological solution. The administration of diclofenac (3 mg/kg) started immediately after the catheter implant and continued daily up to 9 days. The treatment with caspofungin (3 mg/kg) was initiated after 48 h of in vivo biofilm development and maintained by daily injections for 7 days. Sterile saline was administered to the control group. Further analysis and quantification of the number of cells per individual biofilm was performed as previously described. Statistical analysis was performed using unpaired t-test; differences were considered significant if p<0.05. Data are the means and SEM of 2 independent experiments. Six independent catheters retrieved from each test group were used for scanning electron microscopy (SEM) analyses. Prior to the SEM analysis, each catheter fragment was cut longitudinally through the lumen and subsequently prepared for microscopy as previously described.

## O=C(O)Cc1ccccc1Nc1c(Cl)cccc1Cl [diclofenac]
[1]
  remaining C. albicans biofilms compared to untreated WT biofilms: about 50%
[2]
  membrane permeability compared to untreated cells: significantly increased membrane permeability
[3]
  less biofilm cells compared to untreated WT biofilms: about 50%
[4]
  inhibitory activity against planktonic cells: no inhibitory activity
[5]
  MIC50: 2000 µM
[6]
  morphology of biofilm cells: not altered
[7]
  number of biofilm cells compared to untreated catheters: no significant difference
[8]; diclofenac alone
  biofilm structure by scanning electron microscopy: no biofilm-inhibitory effect
[8]; diclofenac alone 3 mg/kg intravenous daily, 48 h pretreatment and up to 7 days further
  number of biofilm cells on catheters compared to control treatment: no significant difference
